From US7323569B2, “7-phenylpyrazolopyridine compounds” (Eisai R&D Management Co., Ltd., priority 2002, dated 2008)
Where two headings read alike, the source gives them in different places.

Test system: CYP3A4
Settings: human, hepatocytes, 48 h
Method: Evaluation of Drug Metabolizing Enzyme (CYP3A4) Inducibility Using Cryopreserved Human Hepatocyte
Cryopreserved hepatocytes (In Vitro Technology) were rapidly thawed while stirring at 37° C., and then ice-cooled William's Medium E (10% FBS, +PSG) was slowly added to the cells prior to centrifugation at 500 rpm for 5 minutes. After removing the supernatant, the obtained hepatocytes were diluted with ice-cooled William's Medium E to a concentration of 5×10^5 cells/mL, seeded on a 48-well collagen coated plate (BD Biosciences) at 1×10^5 cells/cm^2 and incubated for about 24 hours at 37° C., 5% CO2, after which the medium was changed with Hepato-STIM™ (BD Biosciences) (+EGF, PSG, −FBS) and culture was maintained for another 24 hours under conditions of 37° C., 5% CO2. At approximately 48 hours after the cell seeding, the test compound or rifampicin (SIGMA, positive control) in the form of a diluted solution (using Hepato-STIM™ (+EGF, PSG, −FBS)) was added, hepatocyte were incubated for about 24 hours under conditions of 37° C., 5% CO2, and the culture medium was changed with medium containing a freshly prepared dilution of the test compound or rifampicin prior to further incubation for 24 hours under the same conditions. After incubation, the cells were washed once with PBS, and the total RNA was extracted using a Qiagen RNeasy Mini kit (Qiagen). The cDNA was synthesized by reverse-transcription of extracted using TaqMan Reverse Transcription Reagents (Applied Biosystems). The reverse transcription reaction was carried out using oligo dT as primer, with treatment at 25° C. for 10 minutes followed by treatment at 48° C. for 60 minutes, after which the reverse transcriptase was inactivated by treatment at 95° C. for 10 minutes. The obtained cDNA was supplied to a PCR using a Gene Amp PCR system 9700. The obtained cDNA was quantitated using an SYBR Green PCR Core Reagents kit (Applied Biosystems), and the human CYP3A4 and GAPDH mRNA was quantitated using an ABI7700 (Applied Biosystems). The abbreviations used in the test example are explained below. • FBS: Fetal Bovine Serum • PSG: Penicillin (100 U/ml), Streptomycin (100 μg/ml), Glutamine (2 mM) • EGF: Epidermal Growth Factor • GAPDH: Glyceraldehyde-3-Phosphate Dehydrogenase
(2) Calculation of CYP3A4 Inducibility
Next, for comparison of each test run, the differences between the value of the CYP3A4 mRNA amount divided by the GAPDH mRNA amount with addition of the test compound at various concentrations and with addition of the negative control were calculated as percentages, with 100% being defined as the difference between the values of the CYP3A4 mRNA amount divided by the GAPDH mRNA amount for the positive control and negative control, to determine the inducibility of each test compound.

Which results are given for CCc1nn2c(-c3c(OC)cc(COC)cc3OC)cccc2c1N(CC1CCOCC1)CC1CC1 [Example 1, N-Cyclopropylmethyl-N-7-[2,6-dimethoxy-4-(methoxymethyl)phenyl]-2-ethylpyrazolo[1,5-a]pyridin-3-yl-N-tetrahydro-2H-4-pyranylmethylamine]?
CYP3A4 inducibility, % of Positive Control (0.03 μM): 6%; CYP3A4 inducibility, % of Positive Control (0.1 μM): 7%; CYP3A4 inducibility, % of Positive Control (0.3 μM): 12%; CYP3A4 inducibility (1 μM): ≤ 40%; CYP3A4 inducibility, % of Positive Control (1 μM): 20%; CYP3A4 inducibility, % of Positive Control (3 μM): 36%; CYP3A4 inducibility, % of Positive Control (10 μM): 65%

What does the source list for CCOCc1cc(OC)c(-c2cccc3c(N(CC4CCOCC4)CC4CC4)c(CC)nn23)c(OC)c1 [Example 3, N-Cyclopropylmethyl-N-7-[4-(ethoxymethyl)-2,6-dimethoxyphenyl]-2-ethylpyrazolo[1,5-a]pyridin-3-yl-N-tetrahydro-2H-4-pyranylmethylamine]?
CYP3A4 inducibility, % of Positive Control (0.03 μM): 3%; CYP3A4 inducibility, % of Positive Control (0.1 μM): 3%; CYP3A4 inducibility, % of Positive Control (0.3 μM): 7%; CYP3A4 inducibility (1 μM): ≤ 40%; CYP3A4 inducibility, % of Positive Control (1 μM): 25%; CYP3A4 inducibility, % of Positive Control (3 μM): 23%; CYP3A4 inducibility, % of Positive Control (10 μM): 34%

With COCc1cc(OC)c(-c2cccc3c(N(CC4CCOCC4)CC4CC4)c(SC)nn23)c(OC)c1 [Example 59, N-Cyclopropylmethyl-N-[7-[2,6-dimethoxy-4-(methoxymethyl)phenyl]-2-(methylsulfanyl)pyrazolo[1,5-a]pyridin-3-yl]-N-tetrahydro-2H-4-pyranylmethylamine] as the molecule, how does the “CYP3A4 inducibility, % of Positive Control” value (“CYP3A4 inducibility, %” for short) (0.03 μM) read?
Its value is 2%.

What about the “CYP3A4 inducibility, %” value (0.1 μM) of the same molecule?
Its value is 3%.

And the “CYP3A4 inducibility, %” value (0.3 μM)?
The value was 11%.

And the “CYP3A4 inducibility” value (1 μM)?
Its value is no more than 40%.

What about the “CYP3A4 inducibility, %” value (1 μM) of the same molecule?
The value was 25%.

And the “CYP3A4 inducibility, %” value (3 μM)?
The value was 49%.

And the “CYP3A4 inducibility, %” value (10 μM)?
Its value is 59%.
